From patent US6069156A, “Indole derivatives as cGMP-PDE inhibitors” (Fujisawa Pharmaceutical Co., Ltd., priority 1995, dated 2000)
Where a name gives a salt, the structure may show the parent alone. Read-outs that look alike come from different tables or passages of the source.

Legend:
cGMP-PDE = target: T1, cGMP-PDE (Homo sapiens, UniProt O76074); test: cGMP-phosphodiesterase (PDE) Assay (human platelets); assay type: biochemical
T1 construct: cGMP-PDE was separated from other isozymes in human platelets; from tissue; host or cells: human platelets
Description: cGMP-phosphodiesterase (PDE) Assay
cGMP-PDE was separated from other isozymes in human platelets by a modification of the method of Thompson et. al. (Cyclic Nucleotide Phosphodiesterase (PDE), in Methods of Enzymatic analysis, Vol 4, p127-234, 1984). In enzyme inhibition assays, the test compounds were dissolved in 10% DMSO and then diluted with assay buffer (50 mM Tris-HCl, pH 8.0, 0.1 mM dithiothreitol, 2 mM EGTA and 10 u/ml snake venom), at final concentrations ranging from 10^-10 to 10^-6 M. Assays were performed at 0.1 μM substrate ([^3 H]-cGMP) concentration, at 30° C. for 10 minutes using enzyme dilutions which gave 10-20% hydrolysis of substrate. Each assay was initiated by addition of substrate and terminated by addition of anion exchange resin (Dowex 1-X8, 25 μg/mg) followed by centrifugation for 10 minutes (3000 rpm, at 4° C.). Radioactivity of supernatant (^3 H-GMP) was assayed by liquid scintillation counting.

[1] = tested on: Vascular smooth muscle cells (vSMCs); test: vSMC Proliferation ([3H]-thymidine, PDGF-stimulated); assay type: cell-based, male Wistar rats; settings: Rattus norvegicus, PDGF 10 ng/ml stimulation
Description: Vascular smooth muscle cells (vSMCs) were prepared from explants of the thoracic aorta of 10 week old male Wistar rats by a modification of the method of Ross (J. Cell Biol., 50: 172, 1971). They were cultured in DMEM containing 10% fetal calf serum, 1% penicillin G and 1% streptomycin at 37° C. in a 95% air, 5% CO2 humidified atmosphere. vSMCs were seeded in 24 well plates and cultured in the presence of 10% fetal calf serum for 3 days. Cell growth then was arrested by transfer to serum free DMEA. After 24 hours, each test compound or vehicle was added to medium for 1 hour, and then cells were stimulated by PDGF (10 ng/ml). After 24 hours of additional incubation, [^3 H]-thymidine (1 μCi/ml) was added during the final 4 hours of incubation time, and trichloracetic acid insoluble radioactivity was assayed by liquid scintillation counting.

[2] = 0.1 μM [3H]-cGMP, 30° C., 10 minutes, read-out: IC50

| SMILES | IC50 (cGMP-PDE; [2]) [µM] | IC50 (cGMP-PDE) [µM] | IC50 [1] [µM] |
| --- | --- | --- | --- |
| CC(=O)C=Cc1cn(Cc2ccccc2Cl)c2cc(C(N)=O)ccc12 [75-(38), 1-(2-Chlorobenzyl)-3-(3-oxo-1-butenyl)indole-6-carboxamide] | < 0.1 |  |  |
| CCC(=O)c1c(CC)n(Cc2ccccc2Cl)c2cc(C(N)=O)ccc12 [Example 15, 1-(2-Chlorobenzyl) -2-ethyl-3-propionylindole-6-carboxamide] |  | < 0.1 | < 0.1 |
| CC=Cc1c(C(=O)C(C)C)c2ccc(C(N)=O)cc2n1Cc1ccccc1Cl [75-(29), 1-(2-Chlorobenzyl)-3-isobutyryl-2-(1-propenyl)indole-6-carboxamide] |  | < 0.1 | < 0.1 |
| CCCc1c(C(=O)C(C)C)c2ccc(C(N)=O)cc2n1Cc1ccccc1C#N [37-(6), 1-(2-Cyanobenzyl)-3-isobutyryl-2-propylindole-6-carboxamide] |  | < 0.1 |  |
| CCCc1c(C(=O)C(C)C)c2ccc(C(N)=O)cc2n1Cc1ccccn1 [Example 39, 3-isobutyryl-2-propyl-1-(2-pyridylmethyl)indole-6-carboxamide hydrochloride] |  | < 0.1 |  |
| CCc1c(Cl)n(Cc2ccccc2Cl)c2cc(C(N)=O)ccc12 [75-(35), 2-Chloro-1-(2-chlorobenzyl)-3-ethylindole-6-carboxamide] | < 0.1 |  |  |
| CCc1c(CC)n(Cc2ccccc2Cl)c2cc(C(N)=O)ccc12 [37-(17), 1-(2-Chlorobenzyl)-2,3-diethylindole-6-carboxamide] | < 0.1 |  |  |
| CCCc1c(C=O)c2ccc(C(=O)NS(=O)(=O)c3ccccc3)cc2n1Cc1ccccc1Cl [22-(6), 1-(2-Chlorobenzyl)-3-formyl-N-phenylsulfonyl-2-propylindole-6-carboxamide] |  | < 0.1 | < 0.1 |
| CC(=O)c1c(CC(C)C)c2ccc(C(N)=O)cc2n1Cc1ccccc1Cl [Example 18, 2-Acetyl-1-(2-chlorobenzyl)-3-isobutylindole-6-carboxamide] | < 0.1 |  |  |
| CCCc1c(C(=O)C=C(C)C)c2ccc(C(N)=O)cc2n1Cc1ccccc1Cl [73-(40), 1-(2-Chlorobenzyl)-3-(3-methyl-2-butenoyl)-2-propylindole-6-carboxamide] |  | < 0.1 |  |
| CCCc1c(C(=O)C(C)C)c2ccc(C(N)=O)cc2n1Cc1ccccc1I [37-(3), 1-(2-Iodobenzyl)-3-isobutyryl-2-propylindole-6-carboxamide] |  | < 0.1 |  |
| CCCc1c(C(C)=NO)c2ccc(C(N)=O)cc2n1Cc1ccccc1Cl [Example 70, 1-(2-chlorobenzyl)-3-(1-hydroxyiminoethyl)-2-propylindole-6-carboxamide] | < 0.1 |  |  |
| CCCc1c(C(=O)C(C)C)c2ccc(C(N)=O)cc2n1Cc1ccc(Cl)s1 [27-(5), 1-[(5-Chlorothien-2-yl)methyl]-3-isobutyryl-2-propylindole-6-carboxamide] |  | < 0.1 | < 0.1 |
| Cc1c(C(=O)C(C)C)c2ccc(C(N)=O)cc2n1Cc1c(Cl)sc2ccccc12 [75-(21), 1-(2-Chlorobenzo[b]thiophen-3-ylmethyl)-3-isobutyryl-2-methylindole-6-carboxamide] |  | < 0.1 |  |
| N#Cc1ccc2c3c(n(Cc4ccccc4Cl)c2c1)C(=O)CCC3 [67-(2), 9-(2-Chlorobenzyl)-8-oxo-5,6,7,8-tetrahydrocarbazole-2-carbonitrile] | < 0.1 |  | < 0.1 |
| CCCc1c(C(=O)CO)c2ccc(C(N)=O)cc2n1Cc1ccccc1Cl [Example 60, 1-(2-chlorobenzyl)-3-hydroxyacetyl-2-propylindole-6-carboxamide] |  | < 0.1 | < 0.1 |
| CCCc1c(C(=O)C(C)C)c2ccc(C(N)=O)cc2n1Cc1ccccc1C(=O)OC [25-(2), 3-Isobutyryl-(2-methoxycarbonylbenzyl)-2-propylindole-6-carboxamide] |  | < 0.1 |  |
| CCc1c(C(O)C(C)C)c2ccc(C(N)=O)cc2n1Cc1ccccc1Cl (stereo not shown) [Example 69, 1-(2-Chlorobenzyl)-2-ethyl-3-(1-hydroxy-2-methylpropyl)indole-6-carboxamide] | < 0.1 |  |  |
| CCCc1c(C(=O)C(C)C)c2ccc(NC=O)cc2n1Cc1ccccc1Cl [Example 58, 1-(2-chlorobenzyl)-6-formamido-3-isobutyryl-2-propylindole] |  | < 0.1 |  |

| SMILES | IC50 (cGMP-PDE; [2]) [µM] | IC50 (cGMP-PDE) [µM] | IC50 [1] [µM] |
| --- | --- | --- | --- |
| CCCc1c(C(=O)C(C)C)c2ccc(C(=O)OC)cc2n1Cc1ccccc1Cl [Example 4, Methyl 1-(2-chlorobenzyl)-3-isobutyryl-2-propylindole-6-carboxylate] |  | < 0.1 |  |
| CCCc1c(C#N)c2ccc(C(N)=O)cc2n1Cc1ccccc1Cl [37-(11), 1-(2-Chlorobenzyl)-3-cyano-2-propylindole-6-carboxamide] | < 0.1 |  |  |
| NC(=O)c1ccc2c(C(=O)O)cn(Cc3ccccc3Cl)c2c1 [Example 63, 6-carbamoyl-1-(2-chlorobenzyl)indole-3-carboxylic acid] |  | < 0.1 |  |
| CCCc1c(C(=O)C(C)C)c2ccc(C(=O)NO)cc2n1Cc1ccccc1Cl [Example 23, 1-(2-chlorobenzyl)-3-isobutyryl-2-propylindole-6-carbohydroxamic acid] |  | < 0.1 | < 0.1 |
| CCCc1c(C(=O)C(C)C)c2cc(C(N)=O)ccc2n1Cc1ccccc1Cl [75-(4), 1-(2-Chlorobenzyl)-3-isobutyryl-2-propylindole-5-carboxamide] |  | < 0.1 |  |
| NC(=O)c1ccc2c3c(n(Cc4ccccc4Cl)c2c1)C(=O)CC3 [75-(39), 4-(2-Chlorobenzyl)-3-oxo-1,2,3,4-tetrahydrocyclopent[b]indole-6-carboxamide] | < 0.1 |  |  |
| CCCc1c(C(=O)CC)c2ccc(C(N)=O)cc2n1Cc1ccccc1Cl [Example 9, 1-(2-Chlorobenzyl)-3-propionyl-2-propylindole-6-carboxamide] |  | < 0.1 | < 0.1 |
| CCC(O)c1c(C(=O)C(C)C)c2ccc(C(N)=O)cc2n1Cc1ccccc1Cl (stereo not shown) [75-(30), 1-(2-Chlorobenzyl)-2-(1-hydroxypropyl)-3-isobutyrylindole-6-carboxamide] |  | < 0.1 | < 0.1 |
| CCCc1c(C(=O)C(C)C)c2ccc(C(N)=O)cc2n1Cc1ccc2sccc2c1 [75-(23), 1-(Benzo[b]thiophen-5-ylmethyl)-3-isobutyryl-2-propylindole-6-carboxamide] |  | < 0.1 |  |
| CCC(=O)c1c(CC)c2ccc(C(N)=O)cc2n1Cc1ccccc1Cl [Example 21, 1-(2-Chlorobenzyl)-3-ethyl-2-propionylindole-6-carboxamide] | < 0.1 |  |  |
| CCCc1c(C(=O)C(C)C)c2ccc(C(N)=O)cc2n1Cc1ccc2ccccc2c1 [75-(27), 3-Isobutyryl-2-propyl-1-(2-naphthylmethyl)indole-6-carboxamide] |  | < 0.1 |  |
| CCCc1c(C(=O)C(C)C)c2ccc(C(=O)NOC)cc2n1Cc1ccccc1Cl [24-(1), 1-(2-Chlorobenzyl)-3-isobutyryl-O-methyl-2-propylindole-6-carbohydroxamic acid] |  | < 0.1 | < 0.1 |
| CCCc1c(C(=O)CN2CCOCC2)c2ccc(C(N)=O)cc2n1Cc1ccccc1Cl [75-(10), 1-(2-Chlorobenzyl)-3-morpholinoacetyl-2-propylindole-6-carboxamide] |  | < 0.1 |  |
| CCCc1c(C(=O)Cc2ccccc2)c2ccc(C(N)=O)cc2n1Cc1ccccc1Cl [38-(2), 1-(2-Chlorobenzyl)-3-phenylacetyl-2-propylindole-6-carboxamide] |  | < 0.1 | < 0.1 |
| CCCc1c(C(N)=O)c2ccc(C(N)=O)cc2n1Cc1ccccc1Cl [75-(15), 1-(2-Chlorobenzyl)-2-propylindole-3,6-dicarboxamide] |  | < 0.1 |  |
| CCCc1c(C(=O)C(C)C)c2ccc(C(N)=O)cc2n1Cc1cccc(Cl)c1 [27-(2), 1-(3-Chlorobenzyl)-3-isobutyryl-2-propylindole-6-carboxamide] |  | < 0.1 |  |
| COCc1c(C(=O)C(C)C)c2ccc(C(N)=O)cc2n1Cc1ccccc1Cl [37-(14), 1-(2-Chlorobenzyl)-3-isobutyryl-2-methoxymethylindole-6-carboxamide] |  | < 0.1 | < 0.1 |
| CCCc1c(C(=O)C(C)C)c2ccc(C(N)=O)cc2n1Cc1ccc(Cl)cc1 [Example 26, 1-(4-chlorobenzyl)-3-isobutyryl-2-propylindole-6-carboxamide] |  | < 0.1 |  |
